According to PMC7447632, “Highly functionalized β-lactams and 2-ketopiperazines as TRPM8 antagonists with antiallodynic activity” (Scientific Reports, 2020):
Entries after “also recorded” stand apart in the source; their conditions may differ.

How the values were obtained:
[1] = test system: oxaliplatin-induced cold allodynia; experiment: Oxaliplatin-induced cold allodynia in mice (acetone test); format: in vivo; conditions: for Cold allodynia (cold-induced paw licking, acetone test): oxaliplatin-treated male mice
Description: Several chemotherapeutic agents in first clinical line induce peripheral neuropathies (known as CIPN), affecting million patients worldwide and limiting the dose administered to them, as well as the quality of life of many survivors. In oxaliplatin CIPN, the increased sensitivity to cold has been correlated to an augmented expression of TRPM8 channels, among others[4]–[6],[57]. In good correlation, there are recent experimental evidences describing that TRPM8 antagonists are able to decrease oxaliplatin-induced allodynia and cold hypersensitivity[34],[58]. According to these discoveries, we decided to explore the effects of β-lactam 24a in an in vivo model of oxaliplatin CIPN, using acetone assay for monitoring cold allodynia. In male mice, the injection of oxaliplatin on days 1, 3 and 5 at a 6 mg/kg dose produces peripheral cold allodynia.
Figure 4 Effects of compound 24a on the oxaliplatin-induced cold allodynia (acetone test). Male mice were treated with oxaliplatin (6 mg/Kg, ip) or vehicle on days 1, 3 and 5. Then, compound 24a (1 µg/ipl, A or 3 µg/ipl, B) was administered to the oxaliplatin treated animals, and the time-course of cold allodynia was measured. Data are given ± SME (n = 5). **P < 0.05; ***P < 0.001; ****P < 0.0001.
Male C57-mice (≈30 g) (Harlam, Holland) were used for the study. All experiments were approved by the Institutional Animal and Ethical Committee of the Universidad Miguel Hernandez where experiments were conducted and they were in accordance with the guidelines of the Economic European Community and the Committee for Research and Ethical Issues of the International Association for the Study of Pain. All parts of the study concerning animal care were performed under the control of veterinarians.
As previously described, oxaliplatin (Tocris) was dissolved in water with gentle warming and was […] injected on days 1, 3 and 5 at a 6 mg/kg dose. The day 7 after administration, experiments were performed. Together with Oxaliplatin injection, saline and a 5% Mannitol solution were intraperitoneally injected to prevent kidney damage and dehydration. The compound 24a stock was prepared in DMSO (Sigma-Aldrich) and diluted in saline for injections. Compound at different doses (1 to 3 μg) was injected into the plantar surface (25 μL) of the right hind paw of mice. Cold chemical thermal sensitivity was assessed using acetone drop method. Mice were placed in a metal mesh cage and allowed to habituate for approximately 30 min in order to acclimatize them. […] Cold chemical sensitive reaction with respect to paw licking was recorded as a positive response (nociceptive pain response). The responses were measured for 20-s with a digital stopwatch. For each measurement, the paw was sampled twice and the mean was calculated. […]

[2] = test system: MDA-MB-231 (breast adenocarcinoma); experiment: SRB cytotoxicity assay, MDA-MB-231; format: cell-based; conditions: at 10 µg/mL

C[C@@H]1C(=O)N(C[C@H](Cc2ccccc2)NC(=O)OCc2ccccc2)[C@]1(Cc1ccccc1)C(=O)OCc1ccccc1 [Compound 24a, 4S-Benzyl-4-benzyloxycarbonyl-3S-methyl-1-[(2′S-benzyloxycarbonylamino-3′-phenyl)prop-1′-yl]-2-oxoazetidine]
Cold allodynia (cold-induced paw licking, acetone test) ([1]; 1 μg intraplantar): attenuates the cold-induced paw licking in a significant manner | Cold allodynia (cold-induced paw licking, acetone test) ([1]; 3 µg intraplantar): clearly increased at 15 min, and firmly maintained up to 60 min | Time of maximum antiallodynic activity ([1]; intraplantar, after administration): 30 to 60 min | Antiallodynic effect in oxaliplatin-induced peripheral neuropathy ([1]; mice, dose not stated): significantly reduced cold allodynia; also recorded: significant antiallodynic effects | Cytotoxic activity against MDA-MB-231 [2]: no activity
